Measurements reported in patent publication US11168086B2, “Methods of synthesizing pyrazine compounds” (Hoffmann-La Roche Inc., priority 2015, dated 2021).
pEC50: −log10 of the molar value.

system: HBV; assay: HBV inhibition assay: anti-HBV activity in vitro in HepG2.2.15 cells (extracellular HBV DNA by qPCR); assay type: cell-based; settings: Hepatitis B virus, 120 h, five days after compound treatment, extracellular HBV DNA in culture supernatant by qPCR, concentration at which HBV replication is inhibited by 50%
Method in brief: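 HepG2.2.15 cells (stably carrying HBV genome) treated with half-log serially diluted compounds at 0.5% DMSO final for five days. Extracellular HBV DNA in supernatant quantified by qPCR after Proteinase K digestion; EC50 is concentration giving 50% inhibition of replication.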

`C[C@H]1Cn2ncc(N3C[C@@H](c4cnco4)OCC3=O)c2CN1C(=O)Nc1cc(F)c(F)c(F)c1` [Example 407, (6S)-6-methyl-3-[(2S)-2-oxazol-5-yl-5-oxo-morpholin-4-yl]-N-(3,4,5-trifluorophenyl)-6,7-dihydro-4H-pyrazolo[1,5-a]pyrazine-5-carboxamide] and `C[C@H]1Cn2ncc(N3CC(c4cnn(C)c4)CC3=O)c2CN1C(=O)Nc1cc(F)c(F)c(F)c1` (stereo partly drawn) [Example 412, (6S)-6-methyl-3-[4-(1-methylpyrazol-4-yl)-2-oxo-pyrrolidin-1-yl]-N-(3,4,5-trifluorophenyl)-6,7-dihydro-4H-pyrazolo[1,5-a]pyrazine-5-carboxamide] are within 0.2 log units of each other in pEC50: 7.62 for the first, 7.68 for the second.

Compared with `O=C(Nc1ccc(F)c(Cl)c1)N1CCn2ncc(C3CCCC3)c2C1` [Example 78, N-(3-chloro-4-fluoro-phenyl)-3-cyclopentyl-6,7-dihydro-4H-pyrazolo[1,5-a]pyrazine-5-carboxamide], `CC1Cn2ncc(-n3cc(F)cn3)c2CN1C(=O)Nc1ccc(F)c(Cl)c1` (stereo not drawn) [Example 201, N-(3-chloro-4-fluoro-phenyl)-3-(4-fluoropyrazol-1-yl)-6-methyl-6,7-dihydro-4H-pyrazolo[1,5-a]pyrazine-5-carboxamide] is 0.35 log units higher in pEC50: 7.54 for the first, 7.89 for the second.

`O=C(Nc1cc(F)c(F)c(F)c1)N1CCn2ncc(-c3ccc(F)cc3F)c2C1` [Example 51, 3-(2,4-difluorophenyl)-N-(3,4,5-trifluorophenyl)-6,7-dihydro-4H-pyrazolo[1,5-a]pyrazine-5-carboxamide] and `N#Cc1cc(NC(=O)N2CCn3cnc(-c4ccc(F)cc4F)c3C2)ccc1F` [Example 136, N-(3-cyano-4-fluoro-phenyl)-1-(2,4-difluorophenyl)-6,8-dihydro-5H-imidazo[1,5-a]pyrazine-7-carboxamide] are within 0.2 log units of each other in pEC50: 7.17 for the first, 7.25 for the second.

Compared with `C[C@H]1Cn2ncc(N3CC(COc4ncccn4)CC3=O)c2CN1C(=O)Nc1cc(F)c(F)c(F)c1` (stereo partly drawn) [Example 267, (6S)-6-methyl-3-[2-oxo-4-(pyrimidin-2-yloxymethyl)pyrrolidin-1-yl]-N-(3,4,5-trifluorophenyl)-6,7-dihydro-4H-pyrazolo[1,5-a]pyrazine-5-carboxamide], `C[C@H]1Cn2ncc(N3C[C@@H](Oc4ncccn4)CC3=O)c2CN1C(=O)Nc1cc(F)c(F)c(F)c1` [Example 381, (6S)-6-methyl-3-[(4S)-2-oxo-4-pyrimidin-2-yloxy-pyrrolidin-1-yl]-N-(3,4,5-trifluorophenyl)-6,7-dihydro-4H-pyrazolo[1,5-a]pyrazine-5-carboxamide] is 0.89 log units higher in pEC50: 7.41 for the first, 8.30 for the second. The second is the more potent here.

`C[C@@H]1CN(C(=O)C2CC(=O)N(c3cnn4c3CN(C(=O)Nc3cc(F)c(F)c(F)c3)[C@@H](C)C4)C2)CCO1` (stereo partly drawn) [Example 394, (6S)-6-methyl-3-[4-[(2R)-2-methylmorpholine-4-carbonyl]-2-oxo-pyrrolidin-1-yl]-N-(3,4,5-trifluorophenyl)-6,7-dihydro-4H-pyrazolo[1,5-a]pyrazine-5-carboxamide] and `C[C@H]1Cn2ncc(N3CC(C)(C(=O)N4CCC(F)(F)CC4)CC3=O)c2CN1C(=O)Nc1cc(F)c(F)c(F)c1` (stereo partly drawn) [Example 401, (6S)-3-[4-(4,4-difluoropiperidine-1-carbonyl)-4-methyl-2-oxo-pyrrolidin-1-yl]-6-methyl-N-(3,4,5-trifluorophenyl)-6,7-dihydro-4H-pyrazolo[1,5-a]pyrazine-5-carboxamide] are within 0.2 log units of each other in pEC50: 7.19 for the first, 7.06 for the second.

Compared with `C[C@H]1Cn2ncc(N3CCOCC3=O)c2CN1C(=O)Nc1cc(F)c(F)c(Cl)c1` [Example 235, (6S)—N-(3-chloro-4,5-difluoro-phenyl)-6-methyl-3-(3-oxomorpholin-4-yl)-6,7-dihydro-4H-pyrazolo[1,5-a]pyrazine-5-carboxamide], `C[C@H]1Cn2ncc(N3CC(c4ccccc4)OC3=O)c2CN1C(=O)Nc1cc(F)c(F)c(F)c1` (stereo partly drawn) [Example 344, (6S)-6-methyl-3-(2-oxo-5-phenyl-oxazolidin-3-yl)-N-(3,4,5-trifluorophenyl)-6,7-dihydro-4H-pyrazolo[1,5-a]pyrazine-5-carboxamide] is 0.74 log units higher in pEC50: 7.41 for the first, 8.15 for the second.
